Here are results for three compounds from patent US7435548B2, “Methods for producing ex vivo models for inflammatory disease and uses thereof” (deCODE genetics ehf., priority 2001, dated 2008).

The subject of assay [1] is airway smooth muscle (ASM) tissues. The assay is described as follows: ASM constrictor responses to acetylcholine (organ bath, isometric tension). In kind it is tissue-based, New Zealand White rabbits.
Procedure: (§1) After anesthesia with xylazine (10 mg/kg) and ketamine (50 mg/kg), the animals were sacrificed with systemic air embolism.
(§2) After incubation, each airway segment was suspended longitudinally between stainless steel triangular supports in siliconized 20-mL organ baths (Harvard Apparatus, Inc., South Natick, Mass.). […] Care was taken to place the membranous portion of the trachea between the supports to maximize the recorded tension generated by the contracting trachealis muscle. […] Passive resting tension of each tracheal smooth muscle segment was set at 2.0 g after each tissue had been passively stretched to a tension of 8 g to optimize the resting length of each segment. The tissues were allowed to equilibrate in the bath for 45 minutes, at which time each tissue was primed with a 1 minute exposure to 10^−4M acetylcholine (ACh). Cholinergic contractility was initially assessed in the ASM by cumulative administration of ACh in final bath concentrations from 10^−9 to 10^−3M. […] The relaxant responses to isoproterenol were analyzed in terms of percent maximal relaxation (Rmax) from the active cholinergic contraction, and sensitivity to the relaxing agent was determined as the corresponding pD50 value associated with 50% Rmax.
The next assay deals with human ASM cells. As to the kind of experiment: Microarray mRNA expression (Affymetrix HU95GeneFL) in cultured ASM cells. In kind it is cell-based. The source says: Simultaneous multiple gene mRNA expression was examined in human ASM cells with the Affymetrix expression microarray system using human gene chips (HU95GeneFL array; Affymetrix, Santa Clara, Calif.) representing approximately 6000 genes. The ASM cells were derived from a donor (Clonetics Corp., San Diego, Calif.) who had no evidence of pulmonary disease, and the cells were carefully characterized by the manufacturer with specific markers to confirm their selective smooth muscle phenotype and to exclude contamination with other cell types.
Following incubation of the cells, the total RNA used for the Affymetrix microarray expression analysis was extracted and purified using commercially available reagents and in accordance with methods recommended by the manufacturer (Affymetrix, Santa Clara, Calif.). Briefly, total RNA was extracted using Trizol and purified with Qiagen RNAEASY spin columns (Qiagen GmbH, Germany). Approximately 5 μg of RNA was used for first and second strand cDNA synthesis. After precipitation, the cDNAs were transcribed to cRNAs. The biotinylated cRNA was subsequently hybridized to the Affymetrix gene chips overnight. Non-bound probes were removed by stringency washing. The hybridized chips were developed using a Streptavidin-Phycoerythrin complex and scanned. The scanned images were then analyzed with Affymetrix software and the data was examined using commercially available software programs, including Spotfire Net 5.1 (Spotfire Inc, Mass.).

In assay [2] the test system is airway smooth muscle (ASM) tissues. As to the kind of experiment: ASM relaxant responses to isoproterenol after half-maximal ACh contraction (organ bath). The note with it: control ASM. In kind it is tissue-based, New Zealand White rabbits.
Procedure: as §1, §2
Setting [3] is: control ASM (medium alone), mean±SE.

`CC(=O)OCC[N+](C)(C)C` [ACh, acetylcholine]: in assay [1] (setting [3]), the “maximal isometric force of contraction (Tmax) to ACh” value was 93.7±8.9 g/g ASM weight and the “pD50 (−log ED50) for ACh” value was 4.66±0.12 −logM.

Turning to `C[C@@H]1C[C@H]2[C@@H]3CCC4=CC(=O)C=C[C@]4(C)[C@@]3(F)[C@@H](O)C[C@]2(C)[C@@]1(O)C(=O)CO` [DEX, dexamethasone], in assay [1] (DEX 10^−5M alone), the “effect on constrictor responses to ACh in control tissues” value was “no effect”. Moreover, in assay [1] (IL-1β/TNFα exposed ASM pre-treated 1 hour with DEX 10^−5M, mean±SE), the “Tmax to ACh” value is 102.9±13.1 g/g ASM weight. In the assay on human ASM cells (ATP-binding cassette, ABCB2/X57522, IL-1β/TNFα, presence or absence of DEX 10^−5M), the “MER, ABCB2” value was 1.75. For the same compound, the “MER, AMPD3” value in the assay on human ASM cells (Adenosine monophosphate deaminase, AMPD3/D12775, IL-1β/TNFα, presence versus absence of DEX 10^−5M) is given as 0.82. Moreover, in the assay on human ASM cells (BCL2-related protein A1, BCL2A1/U29680, IL-1β/TNFα, presence versus absence of DEX 10^−5M), the “MER, BCL2A1” value came to 0.41. The “MER, BKR2” value in the assay with human ASM cells (Bradykinin receptor-2, BKR2/X86163, IL-1β/TNFα, presence versus absence of DEX 10^−5M) stood at 0.62. The “MER, CD83” value in the assay on human ASM cells (CD83, CD83/Z11697, IL-1β/TNFα, presence versus absence of DEX 10^−5M) is recorded as 0.56. Further, in the assay on human ASM cells (CDC28 protein kinase-2, CKS2/X54942, IL-1β/TNFα, presence versus absence of DEX 10^−5M), the “MER, CKS2” value is given as 0.80. Moreover, the “MER, CEBPD” value in the assay with human ASM cells (Enhancer binding protein, CEBPD/M83667, IL-1β/TNFα, presence or absence of DEX 10^−5M) was 1.48. Also, the “MER, FGF2” value in the assay on human ASM cells (Fibroblast growth factor-2, FGF2/J04513, IL-1β/TNFα, presence versus absence of DEX 10^−5M) is recorded as 0.69. In addition, the “MER, GBP1” value with human ASM cells (Guanylate binding protein-1, GBP1/M55542, IL-1β/TNFα, presence or absence of DEX 10^−5M) is recorded as 1.22. Also, the “MER, HSD11B1” value with human ASM cells (Hydroxysteroid (11-β) dehydrogenase-1, HSD11B1/M7665, IL-1β/TNFα, presence or absence of DEX 10^−5M) is reported as 2.57. In addition, in the assay with human ASM cells (Inhibin, INHBA/X57579, IL-1β/TNFα, presence versus absence of DEX 10^−5M), the “MER, INHBA” value was 0.00. Besides, the “MER, ICAM-1” value in the assay on human ASM cells (Intercellular adhesion molecule-1, ICAM-1/M24283, mRNA elicited by IL-1β/TNFα in presence versus absence of DEX 10^−5M) is reported as 0.66. Further, in the assay with human ASM cells (Interleukin-6, IL-6/X04602, IL-1β/TNFα, presence versus absence of DEX 10^−5M), the “MER, IL-6” value is 0.89. For the same compound, the “MER, IL-8” value in the assay on human ASM cells (Interleukin-8, IL-8/M28130, IL-1β/TNFα, presence versus absence of DEX 10^−5M) was 0.57. The “MER, Interleukin-13 receptor-α” value in the assay on human ASM cells (Interleukin-13 receptor-α, IL-1 RA2/U70981, IL-1β/TNFα, presence versus absence of DEX 10^−5M) is 0.00. For the same compound, the “MER, KIAA0247” value in the assay on human ASM cells (KIAA0247 gene product, KIAA0247/D87434, IL-1β/TNFα, presence or absence of DEX 10^−5M) is 1.3. In the assay on human ASM cells (Matrix metalloproteinase-3, MMP3/X05232, IL-1β/TNFα, presence versus absence of DEX 10^−5M), the “MER, MMP3” value was determined as 0.70. Also, in the assay on human ASM cells (Matrix metalloproteinase-10, MMP10/X07820, IL-1β/TNFα, presence versus absence of DEX 10^−5M), the “MER, MMP10” value is given as 0.00. The “MER, MMP12” value in the assay on human ASM cells (Matrix metalloproteinase-12, MMP12/L23808, IL-1β/TNFα, presence versus absence of DEX 10^−5M) stood at 0.20. For the same compound, the “MER, MAP3K5” value in the assay with human ASM cells (Mitogen-activated protein kinase kinase kinase-5, MAP3K5/U67156, IL-1β/TNFα, presence or absence of DEX 10^−5M) is given as 1.65. In the assay with human ASM cells (Monocyte-derived chemotactic protein, MDCP/HG4069, IL-1β/TNFα, presence versus absence of DEX 10^−5M), the “MER, MDCP” value worked out at 0.29. Further, the “MER, NAF1” value in the assay on human ASM cells (Nef-associated factor 1, NAF1/D30755, IL-1β/TNFα, presence versus absence of DEX 10^−5M) is given as 0.88. For the same compound, the “MER, NINJ1” value in the assay on human ASM cells (Ninjurin-1, NINJ1/U72661, IL-1β/TNFα, presence versus absence of DEX 10^−5M) is on record as 0.59. In addition, the “MER, NFATC1” value in the assay with human ASM cells (Nuclear factor of activated T cells-C1, NFATC1/U08015, IL-1β/TNFα, presence versus absence of DEX 10^−5M) is listed as 0.61. In the assay with human ASM cells (Nuclear factor of kappa light polypeptide, NFKB1/M58603, IL-1β/TNFα, presence versus absence of DEX 10^−5M), the “MER, NFKB1” value was 0.87. Also, the “MER, NR4A3” value in the assay on human ASM cells (Nuclear receptor subfamily 4, NR4A3/U12767, IL-1β/TNFα, presence versus absence of DEX 10^−5M) was found to be 0.54. In the assay on human ASM cells (PTX3 promoter, PTX3/X97748, IL-1β/TNFα, presence versus absence of DEX 10^−5M), the “MER, PTX3” value stood at 0.69. The “MER, PDE4B” value in the assay on human ASM cells (Phosphodiesterase-4B, PDE4B/L20971, IL-1β/TNFα, presence versus absence of DEX 10^−5M) came to 0.40. The “MER, ATP2B1” value in the assay with human ASM cells (Plasma membrane Ca^2+ ATPase, ATP2B1/J04027, IL-1β/TNFα, presence versus absence of DEX 10^−5M) was found to be 0.34. The “MER, PBEF” value in the assay on human ASM cells (Pre-B cell colony-enhancing factor, PBEF/U02020, IL-1β/TNFα, presence versus absence of DEX 10^−5M) is given as 0.73. Moreover, in the assay with human ASM cells (Putative lymphocyte G0/G1 switch gene, G0S2/M72885, IL-1β/TNFα, presence versus absence of DEX 10^−5M), the “MER, G0S2” value stood at 0.65. In the assay on human ASM cells (RANTES, RANTES/M21121, IL-1β/TNFα, presence versus absence of DEX 10^−5M), the “MER, RANTES” value was 0.67. In addition, the “MER, STAT5A” value in the assay on human ASM cells (Signal transducer/activator of transcription 5, STAT5A/U43185, IL-1β/TNFα, presence versus absence of DEX 10^−5M) came to 0.87. Moreover, the “MER, SCYA7” value in the assay with human ASM cells (Small inducible cytokine subfamily A7, SCYA7/X72308, IL-1β/TNFα, presence versus absence of DEX 10^−5M) came to 0.50. Further, the “MER, SCYB2” value in the assay with human ASM cells (Small inducible cytokine subfamily B2, SCYB2/M57731, IL-1β/TNFα, presence versus absence of DEX 10^−5M) stood at 0.52. Further, the “MER, SCYB3” value in the assay with human ASM cells (Small inducible cytokine subfamily B3, SCYB3/X53800, IL-1β/TNFα, presence versus absence of DEX 10^−5M) stood at 0.83. Moreover, the “MER, SCYB6” value in the assay with human ASM cells (Small inducible cytokine subfamily B6, SCYB6/U83303, IL-1β/TNFα, presence versus absence of DEX 10^−5M) stood at 0.61. Also, the “MER, SCYB10” value in the assay with human ASM cells (Small inducible cytokine subfamily B10, SCYB10/X02530, IL-1β/TNFα, presence or absence of DEX 10^−5M) is 1.12. For the same compound, the “MER, SCYB5” value with human ASM cells (Small inducible subfamily B5, SCYB5/L37036, IL-1β/TNFα, presence or absence of DEX 10^−5M) came out at 1.75. The “MER, SOD2” value in the assay with human ASM cells (Superoxide dismutase-2, SOD2/X07834, IL-1β/TNFα, presence versus absence of DEX 10^−5M) is 0.89. Moreover, the “MER, Tenascin C” value in the assay on human ASM cells (Tenascin C, HXB/X78565, IL-1β/TNFα, presence or absence of DEX 10^−5M) is reported as 1.21. Also, the “MER, TNF-αIP3” value in the assay with human ASM cells (Tumor necrosis factor-α-induced protein 3, TNF-αIP3/M59465, IL-1β/TNFα, presence or absence of DEX 10^−5M) is given as 1.21. For the same compound, the “MER, TNF-αIP6” value in the assay on human ASM cells (Tumor necrosis factor-α-induced protein 6, TNF-αIP6/M31165, IL-1β/TNFα, presence or absence of DEX 10^−5M) is reported as 1.11. Further, the “MER, uPA” value with human ASM cells (Urokinase plasminogen activator, uPA/X02419, IL-1β/TNFα, presence versus absence of DEX 10^−5M) stood at 0.00. In the assay with human ASM cells (in the presence of DEX 10^−5M), the “inhibition of IL-1β/TNFα induced mRNA expression, p50-NF-kB gene” value is reported as 51%; the “inhibition of IL-1β/TNFα induced mRNA expression, phosphodiesterase D4 gene” value was 60%; the “inhibition of IL-1β/TNFα induced mRNA expression, plasma membrane Ca^2+ ATPase gene” value is on record as 66%. Further, the “MER, pro-Interleukin-1β” value with human ASM cells (pro-Interleukin-1β, IL-1β/X04500, IL-1β/TNFα, presence versus absence of DEX 10^−5M) worked out at 0.45.

With `CC(C)NCC(O)c1ccc(O)c(O)c1` (stereo not drawn) [isoproterenol], the EC50 in assay [2] (Oryctolagus cuniculus, read-out: pD50 for isoproterenol (converted)) was 0.813 µM. The “maximal relaxation (Rmax) to isoproterenol” value in assay [2] was 57.7±7.1%.
